The text below walks through data of patent US6462040B1, “Cis-substituted aminocyclopropane derivative” (Daiicho Pharmaceutical Co., Ltd., priority 1996, dated 2002).

What all share (assay): Antimicrobial activity, MIC (standard method of the Japan Chemotherapeutic Society)
Assay type in all cases: cell-based

For assay [1], the system named is E. coli, NIHJ. An excerpt:
(§1) The present invention will further be illustrated in greater detail by way of Examples and Reference Examples, but the present invention should not be construed as being limited thereto. The antimicrobial activity of the compounds prepared was examined in accordance with the standard method specified by the Japan Chemotherapeutic Society, and the results obtained were expressed in terms of minimum inhibitory concentration (MIC; μg/ml).

In assay [2] the test system is Pr. mirabilis, IFO-3849.
Source text: as §1

In assay [3] the test system is Pr. vulgaris, 08601.
Source text: as §1

The subject of assay [4] is Ps. aeruginosa, 32104.
Source text: as §1

Assay [5] concerns Ps. aeruginosa, 32121.
Source text: as §1

The test system of assay [6] is Ps. maltophilia, IID-1275.
Source text: as §1

Assay [7] has as its system S. aureaus, 209P.
Source text: as §1

For assay [8], the system named is S. aureus, 870307.
Source text: as §1

Assay [9] has as its system S. epidermidis, 56500.
Source text: as §1

Assay [10] relates to S. flexneli, 2A 5503.
Source text: as §1

For assay [11], the system named is Ser. marcescens, 10100.
Source text: as §1

Assay [12] deals with Str. faecalis, ATCC-19433.
Source text: as §1

Assay [13] has as its system Str. pyogenes, G-36.
Source text: as §1

The structures appear in SMILES notation. ≈ marks a conversion by molar mass, not a printed value.

Take `Cc1c(N2CCC([C@@H]3C[C@@H]3N)C2)c(F)c(N)c2c(=O)c(C(=O)O)cn([C@@H]3C[C@@H]3F)c12` (single isomer, unassigned; isomer b) [Example 3]: the minimal inhibitory concentration (MIC) result is “≦0.003 μg/ml” in assay [1]; 0.05 µg/mL (≈ 0.119 µM) in assay [2]; 0.05 µg/mL (≈ 0.119 µM) in [3]; 0.20 µg/mL (≈ 0.478 µM) in [4]; 0.10 µg/mL (≈ 0.239 µM) in assay [5]; 0.05 µg/mL (≈ 0.119 µM) in assay [6]. Further, the MIC result was “≦0.003 μg/ml” in [7]; 0.025 µg/mL (≈ 0.0597 µM) in assay [8]; 0.006 µg/mL (≈ 0.0143 µM) in [9]; “≦0.003 μg/ml” in assay [10]; 0.10 µg/mL (≈ 0.239 µM) in assay [11]; 0.025 µg/mL (≈ 0.0597 µM) in assay [12]. The compound also gave an MIC in [13] of 0.006 µg/mL (≈ 0.0143 µM).
